Data reported in US7585998B2 (Bayer CropScience AG, priority 2003, dated 2009).

Assay: log P determination by HPLC on a reverse phase column (C 18), EEC Directive 79/831 Annex V.A8
Type: physicochemical
Conditions: pH 2.3, 0.1% aqueous phosphoric acid and acetonitrile as eluents, linear gradient 10% to 90% acetonitrile, 43° C.
Description: The determination of the log P values reported in the above tables and preparation examples is carried out in compliance with EEC Directive 79/831 Annex V.A8 by HPLC (High Performance Liquid Chromatography) on a reverse phase column (C 18). Temperature: 43° C. The determination is carried out in the acid region at pH 2.3 with 0.1% aqueous phosphoric acid and acetonitrile as eluents; linear gradient of 10% acetonitrile to 90% acetonitrile. Calibration is carried out with unbranched alkan-2-ones (with 3 to 16 carbon atoms) the log P values of which are known (determination of the log P values on the basis of retention times by linear interpolation between two sequential alkanones).

## CCOC(=O)c1sc(C)nc1C(F)F
  chromatographic logP: 2.18
